Data set [1] addresses T1, TtgR (TtgR^WT) (Pseudomonas putida, UniProt Q9AIU0).
T1 construct: homodimer
Kind of data set: isothermal titration calorimetry, one set of sites. Type of data set: binding. On the technique in general: In ITC the heat of successive injections is recorded.

Data set [2] addresses TtgR (TtgR^WT) (Pseudomonas putida, UniProt Q9AIU0, N110A). Kind of data set: biochemical. From the text:
(§1) isothermal titration calorimetry, one set of sites on TtgR (TtgR^WT)

In data set [3] the target is TtgR (TtgR^WT) (Pseudomonas putida, UniProt Q9AIU0, H114A). In words: biochemical.
Excerpt: as §1

Data set [4] addresses TtgR (TtgR^WT) (Pseudomonas putida, UniProt Q9AIU0, E78A). In words: biochemical.
Excerpt: as §1

For data set [5], the system named is TtgR H114A (Pseudomonas putida DOT-T1E). In words: EMSA. The following applies: 5 uM naringenin; EMSA: 10 mM Tris-HCl pH 7.0, 250 mM NaCl, 10 mM Mg acetate, 10 mM KCl, 5% glycerol, 0.1 mM EDTA, 5 mM DTT, 20 ug/ml poly(dI-dC), 200 ug/ml BSA; 10 min at 30 C …. (In general: Mobility shift assays separate free from complexed probe on a gel.)
In data set [6] the test system is TtgR E78A (Pseudomonas putida DOT-T1E). In words: EMSA. The following applies: 5 uM naringenin; EMSA: 10 mM Tris-HCl pH 7.0, 250 mM NaCl, 10 mM Mg acetate, 10 mM KCl, 5% glycerol, 0.1 mM EDTA, 5 mM DTT, 20 ug/ml poly(dI-dC), 200 ug/ml BSA; 10 min at 30 C ….
For data set [7], the system named is TtgR N110A (Pseudomonas putida DOT-T1E). In words: EMSA. Particulars: 5 uM phloretin; EMSA: 10 mM Tris-HCl pH 7.0, 250 mM NaCl, 10 mM Mg acetate, 10 mM KCl, 5% glycerol, 0.1 mM EDTA, 5 mM DTT, 20 ug/ml poly(dI-dC), 200 ug/ml BSA; 10 min at 30 C ….

The values that follow come from PMC4589371, “Molecular Binding Mechanism of TtgR Repressor to Antibiotics and Antimicrobials” (PLoS ONE, 2015).

As usually defined, the Kd is the free concentration of one partner at which half of the binding sites on the other are occupied at equilibrium, for simple one-to-one binding. As for `O=C(N[C@H](CO)[C@H](O)c1ccc([N+](=O)[O-])cc1)C(Cl)Cl` [chloramphenicol], the Kd was found to be 5.6 ± 0.4 µM on TtgR (TtgR^WT) [1], 15.6 ± 2 µM on TtgR (TtgR^WT) [2], 8.5 ± 0.5 µM at TtgR (TtgR^WT) [3] and 18.5 ± 1 µM on TtgR (TtgR^WT) [4].
As to “ttgABC-ttgR intergenic region (operator), 189 bp”, the binding signal (% DNA released) in data set [5] and in data set [6] was 30 each time. This molecule also displayed a binding signal (% DNA dissociated) in data set [7] of 66.
For the molecule `O=C(CCc1ccc(O)cc1)c1c(O)cc(O)cc1O` [phloretin], the Kd on TtgR (TtgR^WT) [1] is 1.5 ± 0.2 µM; on TtgR (TtgR^WT) [2], 1 ± 0.1 µM; at TtgR (TtgR^WT) [3], 1.3 ± 0.1 µM; at TtgR (TtgR^WT) [4], 0.7 ± 0.1 µM.
